Results as given in the supplement of paper PMC10627819.

Assays:
[1] = test system: S. pneumoniae D39V; test: Bliss interaction score (quartile over a dose matrix) (fitness difference); higher = more antagonism (negative = synergy)
Procedure, shortened: (§1)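 Each plate was normalised to the robust mean of its own no-drug wells, using OD595 at entry into stationary phase, with values capped at 1. This normalised growth is the fitness value. The Bliss score is the difference between observed and product-expected fitness, with single-drug fitness inferred from the combination data and quartiles taken over technical, biological and donor/recipient replicates.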

[2] = test system: S. aureus Newman; test: as above
Procedure, shortened: as §1

[3] = test system: S. aureus DSM 20231; test: as above
Procedure, shortened: as §1

[4] = test system: B. subtilis 168; test: as above
Procedure, shortened: as §1

[5] = test system: S. pneumoniae D39V; test: fitness (endpoint OD595 vs no drug) (fraction); higher = more growth
Procedure, shortened: (§2)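 Fitness was defined as the optical density at the transition into stationary phase relative to the robust mean of no-drug control wells. Values were capped at 1. Cultures were started at OD595 0.01 in 384-well plates (30 µl, or 55 µl for S. pneumoniae) in TSB, LB Lennox or CY at 37 °C. OD595 was recorded every 30 min over 14 h, with the first reading subtracted as background.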

[6] = test system: S. aureus Newman; test: as above
Procedure, shortened: as §2

[7] = test system: S. aureus DSM 20231; test: as above
Procedure, shortened: as §2

[8] = test system: B. subtilis 168; test: as above
Procedure, shortened: as §2
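For Bliss interaction score (quartile over a dose matrix) in this document: first quartile when negative (synergy) and third quartile when positive (antagonism).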

COc1cccc2c1C(=O)c1c(O)c3c(c(O)c1C2=O)C[C@@](O)(C(=O)CO)C[C@@H]3O[C@H]1C[C@H](N)[C@H](O)[C@H](C)O1 [Doxorubicin] + Cn1nnc(-c2ccc(-c3ccc(N4C[C@H](CO)OC4=O)cc3F)cn2)n1 [Tedizolid]
Details	Bliss interaction score
[1]	-0.0807
[2]	-0.0534
[3]	-0.0759
[4]	0.0912

fitness
Details	partner 0.03125 µg/mL	partner 0.0625 µg/mL	partner 0.125 µg/mL	partner 0.25 µg/mL	partner 0.5 µg/mL
[5], first compound 0.25 µg/mL	0.897	0.909	0.747	0.288	0.131
[5], first compound 0.5 µg/mL	0.903	0.938	0.748	0.288	0.114
[5], first compound 1 µg/mL	0.917	0.953	0.774	0.282	0.11
[6], first compound 0.625 µg/mL	–	0.786	0.758	–	–
[6], first compound 1.25 µg/mL	–	0.751	0.731	–	–
[6], first compound 2.5 µg/mL	–	0.693	0.655	–	–
[7], first compound 0.625 µg/mL	–	0.813	0.728	0.339	–
[7], first compound 1.25 µg/mL	–	0.783	0.7	0.374	–
[7], first compound 2.5 µg/mL	–	0.738	0.673	–	–

C[C@@H]1O[C@@H]1P(=O)(O)O [Fosfomycin] + CC(=O)NC[C@H]1CN(c2ccc(N3CCOCC3)c(F)c2)C(=O)O1 [Linezolid]
Details	Bliss interaction score
[1]	0.0981
[2]	-0.134
[3]	0.0569
[4]	0.123

Details	fitness
[5], first compound 1.25 µg/mL, partner 0.105 µg/mL	0.839
[5], first compound 1.25 µg/mL, partner 0.21 µg/mL	0.76
[5], first compound 1.25 µg/mL, partner 0.4 µg/mL	0.314
[5], first compound 1.25 µg/mL, partner 0.42 µg/mL	0.605
[5], first compound 1.25 µg/mL, partner 0.8 µg/mL	0.138
[5], first compound 2.5 µg/mL, partner 0.105 µg/mL	0.803
[5], first compound 2.5 µg/mL, partner 0.2 µg/mL	0.626
[5], first compound 2.5 µg/mL, partner 0.21 µg/mL	0.729
[5], first compound 2.5 µg/mL, partner 0.4 µg/mL	0.315
[5], first compound 2.5 µg/mL, partner 0.42 µg/mL	0.522
[5], first compound 2.5 µg/mL, partner 0.8 µg/mL	0.132
[5], first compound 5 µg/mL, partner 0.105 µg/mL	0.721
[5], first compound 5 µg/mL, partner 0.2 µg/mL	0.564
[5], first compound 5 µg/mL, partner 0.21 µg/mL	0.704
[5], first compound 5 µg/mL, partner 0.4 µg/mL	0.311
[5], first compound 5 µg/mL, partner 0.42 µg/mL	0.421
[5], first compound 5 µg/mL, partner 0.8 µg/mL	0.136
[7], first compound 0.781 µg/mL, partner 0.125 µg/mL	0.691
[7], first compound 0.781 µg/mL, partner 0.25 µg/mL	0.581
[7], first compound 0.781 µg/mL, partner 0.5 µg/mL	0.167
[7], first compound 1.562 µg/mL, partner 0.125 µg/mL	0.598
[7], first compound 1.562 µg/mL, partner 0.25 µg/mL	0.495
[7], first compound 1.562 µg/mL, partner 0.5 µg/mL	0.0991
[7], first compound 3.124 µg/mL, partner 0.125 µg/mL	0.459
[7], first compound 3.124 µg/mL, partner 0.25 µg/mL	0.339
[7], first compound 3.124 µg/mL, partner 0.5 µg/mL	0.0673
[8], first compound 1.562 µg/mL, partner 0.125 µg/mL	0.507
[8], first compound 3.124 µg/mL, partner 0.125 µg/mL	0.437
[8], first compound 6.248 µg/mL, partner 0.125 µg/mL	0.304

fitness, one replicate
Details	first compound 0.781 µg/mL	first compound 1.562 µg/mL	first compound 3.124 µg/mL	first compound 6.248 µg/mL
[7], partner 1 µg/mL	0.0309	0.0297	0.0078	–
[8], partner 0.0625 µg/mL	–	0.726	0.606	0.368

C[C@@H]1O[C@@H]1P(=O)(O)O [Fosfomycin] + CCCCCCCCCC(=O)N[C@@H]1[C@H]([C@@H]([C@H](O[C@H]1OC2=C3C=C4C=C2OC5=C(C=C(C=C5)[C@H]([C@H]6C(=O)N[C@@H](C7=C(C(=CC(=C7)O)OC8[C@H]([C@H]([C@@H]([C@H](O8)CO)O)O)O)C9=C(C=CC(=C9)[C@H](C(=O)N6)NC(=O)[C@@H]4NC(=O)[C@@H]1C2=CC(=CC(=C2)OC2=C(C=CC(=C2)[C@H](C(=O)N[C@H](CC2=CC(=C(O3)C=C2)Cl)C(=O)N1)N)O)O)O)C(=O)O)O[C@H]1[C@@H]([C@H]([C@@H]([C@H](O1)CO)O)O)NC(=O)C)Cl)CO)O)O [Teicoplanin]
main component drawn
Details	Bliss interaction score
[1]	0.065
[2]	0.177
[3]	0.154
[4]	-0.078

fitness, main component drawn
Details	first compound 0.781 µg/mL	first compound 1.562 µg/mL	first compound 3.124 µg/mL
[6], partner 0.1562 µg/mL	0.58	0.525	0.127
[6], partner 0.3125 µg/mL	0.568	0.534	0.261
[6], partner 0.625 µg/mL	0.663	0.582	0.348
[7], partner 0.1562 µg/mL	0.863	0.698	0.538
[7], partner 0.3125 µg/mL	0.968	0.831	–
[7], partner 0.625 µg/mL	0.933	0.862	0.654

fitness, [6], one replicate, main component drawn
Details	first compound 0.781 µg/mL	first compound 1.562 µg/mL	first compound 3.124 µg/mL
partner 0.62 µg/mL	0.715	0.682	0.522
partner 1.24 µg/mL	0.646	0.616	0.472
partner 2.48 µg/mL	0.461	0.234	0.0834

C[C@@H]1O[C@@H]1P(=O)(O)O [Fosfomycin] + CCC[C@@H]1C[C@@H](C(=O)N[C@@H]([C@H]2O[C@H](SC)[C@H](O)[C@@H](O)[C@H]2O)[C@@H](C)O)N(C)C1 [Lincomycin]
Details	Bliss interaction score
[1]	0.0737
[2]	-0.31
[3]	-0.158
[4]	0.0718

fitness
Details	partner 0.1 µg/mL	partner 0.2 µg/mL	partner 0.215 µg/mL	partner 0.4 µg/mL	partner 0.43 µg/mL	partner 0.8 µg/mL	partner 0.86 µg/mL
[5], first compound 1.25 µg/mL	–	0.606	0.812	0.365	0.698	0.0632	0.499
[5], first compound 2.5 µg/mL	–	0.58	0.823	0.317	0.683	0.0611	0.45
[5], first compound 5 µg/mL	–	0.511	0.785	0.285	0.691	0.0462	0.394
[7], first compound 0.781 µg/mL	0.645	0.508	–	0.137	–	–	–
[7], first compound 1.562 µg/mL	0.515	0.32	–	0.0482	–	–	–
[7], first compound 3.124 µg/mL	0.387	0.0895	–	0.0388	–	–	–
[8], first compound 1.562 µg/mL	0.689	0.707	–	0.705	–	–	–
[8], first compound 3.124 µg/mL	0.616	0.591	–	0.61	–	–	–
[8], first compound 6.248 µg/mL	0.469	0.429	–	0.476	–	–	–

fitness, [8], one replicate
Details	first compound 1.562 µg/mL	first compound 3.124 µg/mL	first compound 6.248 µg/mL
partner 0.8 µg/mL	0.719	0.572	0.466
partner 1.6 µg/mL	0.695	0.537	0.436

Cc1ncc([N+](=O)[O-])n1CCO [Metronidazole] + CCCCCCCCCC(=O)N[C@@H]1[C@H]([C@@H]([C@H](O[C@H]1OC2=C3C=C4C=C2OC5=C(C=C(C=C5)[C@H]([C@H]6C(=O)N[C@@H](C7=C(C(=CC(=C7)O)OC8[C@H]([C@H]([C@@H]([C@H](O8)CO)O)O)O)C9=C(C=CC(=C9)[C@H](C(=O)N6)NC(=O)[C@@H]4NC(=O)[C@@H]1C2=CC(=CC(=C2)OC2=C(C=CC(=C2)[C@H](C(=O)N[C@H](CC2=CC(=C(O3)C=C2)Cl)C(=O)N1)N)O)O)O)C(=O)O)O[C@H]1[C@@H]([C@H]([C@@H]([C@H](O1)CO)O)O)NC(=O)C)Cl)CO)O)O [Teicoplanin]
main component drawn
Details	Bliss interaction score
[1]	0.126
[2]	0.0581
[3]	0.0308
[4]	0.0689

fitness, main component drawn
Details	first compound 0.625 µg/mL	first compound 1.25 µg/mL	first compound 2.5 µg/mL
[6], partner 0.1562 µg/mL	0.976	0.979	–
[6], partner 0.3125 µg/mL	0.988	0.973	0.933
[6], partner 0.625 µg/mL	0.927	0.925	0.752
[7], partner 0.1562 µg/mL	0.967	≥ 1	≥ 1
[7], partner 0.3125 µg/mL	≥ 1	≥ 1	≥ 1
[7], partner 0.625 µg/mL	≥ 1	≥ 1	≥ 1

fitness, [6], one replicate, main component drawn
Details	first compound 0.625 µg/mL	first compound 0.781 µg/mL	first compound 1.25 µg/mL	first compound 1.562 µg/mL	first compound 2.5 µg/mL	first compound 3.124 µg/mL
partner 0.1562 µg/mL	–	≥ 1	–	≥ 1	–	≥ 1
partner 0.3125 µg/mL	–	≥ 1	–	0.961	–	0.989
partner 0.62 µg/mL	0.82	–	0.795	–	0.81	–
partner 0.625 µg/mL	–	0.845	–	0.805	–	0.836
partner 1.24 µg/mL	0.745	–	0.774	–	0.76	–
partner 2.48 µg/mL	0.492	–	0.505	–	0.486	–

COc1ccc(C[C@H](N)C(=O)N[C@H]2[C@@H](O)[C@H](n3cnc4c(N(C)C)ncnc43)O[C@@H]2CO)cc1 [Puromycin] + CCCCCCCCCC(=O)N[C@@H]1[C@H]([C@@H]([C@H](O[C@H]1OC2=C3C=C4C=C2OC5=C(C=C(C=C5)[C@H]([C@H]6C(=O)N[C@@H](C7=C(C(=CC(=C7)O)OC8[C@H]([C@H]([C@@H]([C@H](O8)CO)O)O)O)C9=C(C=CC(=C9)[C@H](C(=O)N6)NC(=O)[C@@H]4NC(=O)[C@@H]1C2=CC(=CC(=C2)OC2=C(C=CC(=C2)[C@H](C(=O)N[C@H](CC2=CC(=C(O3)C=C2)Cl)C(=O)N1)N)O)O)O)C(=O)O)O[C@H]1[C@@H]([C@H]([C@@H]([C@H](O1)CO)O)O)NC(=O)C)Cl)CO)O)O [Teicoplanin]
main component drawn
Details	Bliss interaction score
[1]	0.083
[2]	0.0617
[3]	-0.0344
[4]	0.0835

fitness, main component drawn
Details	first compound 0.39 µg/mL	first compound 0.78 µg/mL	first compound 1.56 µg/mL
[6], partner 0.1562 µg/mL	≥ 1	≥ 1	≥ 1
[6], partner 0.3125 µg/mL	≥ 1	≥ 1	≥ 1
[6], partner 0.625 µg/mL	≥ 1	0.888	0.906
[7], partner 0.1562 µg/mL	0.895	0.997	0.982
[7], partner 0.3125 µg/mL	≥ 1	≥ 1	1
[7], partner 0.625 µg/mL	≥ 1	≥ 1	≥ 1

fitness, one replicate, main component drawn
Details	partner 0.1562 µg/mL	partner 0.3125 µg/mL	partner 0.62 µg/mL	partner 0.625 µg/mL	partner 1.24 µg/mL	partner 2.48 µg/mL
[6], first compound 0.39 µg/mL	–	–	0.761	–	0.754	0.457
[6], first compound 0.78 µg/mL	–	–	0.815	–	0.755	0.454
[6], first compound 1.56 µg/mL	–	–	0.79	–	0.76	0.403
[7], first compound 3.12 µg/mL	0.94	≥ 1	–	≥ 1	–	–
[7], first compound 6.24 µg/mL	0.664	0.579	–	0.504	–	–
